Here are results for 21 molecules from patent US20230339902A1, “TRICYCLIC LIGANDS FOR DEGRADATION OF IKZF2 OR IKZF4” (C4 Therapeutics, Inc., priority 2020, published 2023).

One test has as its target T1, IKZF2 (Homo sapiens, UniProt Q96SW2+Q9UKS7).
T1 construct: endogenously expressing IKZF2 with HiBiT fusion tag via CRISPR; host or cells: JURKAT.21 (IKZF2-HiBiT), CRISPR knock-in
The test can be described thus: IKZF2 degradation assay, HiBiT method (Nano-Glo HiBiT Lytic Assay). The class given is cell-based. The note with it: JURKAT.21 (IKZF2-HiBiT) cells. An excerpt: Example 61 IKZF2 Degradation Assay
RPMI 1640 Medium without phenol red and fetal bovine serum (FBS) were purchased from Gibco (Grand Island, NY, USA). Nano-Glo® HiBiT Lytic Assay System was purchased from Promega (Madison, WI, USA). JURKAT.21 (IKZF2-HiBiT) cell line, endogenously expressing IKZF2 with HiBiT fusion tag via CRISPR, was purchasing from Synthego (Menlo Park, CA, USA). Cell culture flasks and 384-well microplates were acquired from VWR (Radnor, PA, USA).
IKZF2 Degradation Analysis
(§1) IKZF2 degradation was determined based on quantification of luminescent signal using Nano-Glo® HiBiT Lytic Assay kit. Test compounds were added to the 384-well plate from a top concentration of 10 µM with 11 points, half log titration in duplicates. JURKAT.216 cells were added into 384-well plates at a cell density of 5000 cells per well. The plates were kept at 37° C. with 5% CO2 for 6 or 24 hours. The cells treated in the absence of the test compound were the negative control and the cells without Nano-Glo® HiBiT Lytic reagent were the positive control. After 6-hour or 24-hour incubation, Nano-Glo® HiBiT Lytic Assay reagents were added to the cells. Luminescence was acquired on EnVision™ Multilabel Reader (PerkinElmer, Santa Clara, CA, USA).

The next test concerns the target T2, GSPT1 (Homo sapiens, UniProt P15170+Q96SW2).
T2 construct: endogenously expressing GSPT1 with HiBiT fusion tag via CRISPR; endogenous in cells; host or cells: 293T.114 (HiBiT-GSPT1), CRISPR knock-in, generated in house
The test can be described thus: GSPT1 degradation assay, HiBiT method (Nano-Glo HiBiT Lytic Assay). The class given is cell-based. The note with it: 293T.114 (HiBiT-GSPT1) cells, 6 hours. The procedure: Example 62 GSPT1 Degradation Assay
DMEM no-phenol red medium and fetal bovine serum (FBS) were purchased from Gibco (Grand Island, NY, USA). Nano-Glo® HiBiT Lytic Assay System was purchased from Promega (Madison, WI, USA). 293T.114 (HiBiT-GSPT1) cell line was generated in house, endogenously expressing GSPT1 with HiBiT fusion tag via CRISPR. Cell culture flasks and 384-well microplates were acquired from VWR (Radnor, PA, USA).
GSPT1 Degradation Analysis
as §1, with “GSPT1” for “IKZF2”, “293T.114” for “JURKAT.216”, “6000” for “5000”, “6” for “6 or 24”, “6-hour” for “6-hour or 24-hour”, “designated wells.” for “cells.”

Where [1] appears, read: 6 hours, read-out: HiBiT-Degradation JURKAT.21 IKZF2 6 hours DC50.
Setting [2] is: 6 hours, read-out: HiBiT-Degradation JURKAT.21 IKZF2 6 hours Emax.
Where [3] appears, read: 24 hours, read-out: HiBiT-Degradation JURKAT.21 IKZF2 24 hours DC50.
The mark [4] stands for this setting: 24 hours, read-out: HiBiT-Degradation JURKAT.21 IKZF2 24 hours Emax.

Read-outs that look alike come from different tables or passages of the source. A value given as a limit tells only on which side of the number the result lay.

T2 sequence (P15170 whole entry, the tested form may be a part): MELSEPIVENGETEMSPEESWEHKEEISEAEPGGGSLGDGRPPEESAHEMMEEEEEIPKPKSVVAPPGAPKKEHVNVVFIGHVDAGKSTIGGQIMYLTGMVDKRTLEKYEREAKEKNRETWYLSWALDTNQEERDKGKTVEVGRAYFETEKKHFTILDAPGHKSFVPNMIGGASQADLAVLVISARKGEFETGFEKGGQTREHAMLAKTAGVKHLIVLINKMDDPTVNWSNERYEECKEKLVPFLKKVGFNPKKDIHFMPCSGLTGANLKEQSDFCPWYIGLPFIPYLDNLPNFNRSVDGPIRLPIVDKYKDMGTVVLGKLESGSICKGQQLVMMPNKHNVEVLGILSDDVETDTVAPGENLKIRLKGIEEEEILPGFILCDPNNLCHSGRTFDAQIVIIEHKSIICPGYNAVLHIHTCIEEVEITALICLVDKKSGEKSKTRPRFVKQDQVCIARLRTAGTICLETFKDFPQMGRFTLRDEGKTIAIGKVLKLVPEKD
T2 sequence (Q96SW2 whole entry, the tested form may be a part): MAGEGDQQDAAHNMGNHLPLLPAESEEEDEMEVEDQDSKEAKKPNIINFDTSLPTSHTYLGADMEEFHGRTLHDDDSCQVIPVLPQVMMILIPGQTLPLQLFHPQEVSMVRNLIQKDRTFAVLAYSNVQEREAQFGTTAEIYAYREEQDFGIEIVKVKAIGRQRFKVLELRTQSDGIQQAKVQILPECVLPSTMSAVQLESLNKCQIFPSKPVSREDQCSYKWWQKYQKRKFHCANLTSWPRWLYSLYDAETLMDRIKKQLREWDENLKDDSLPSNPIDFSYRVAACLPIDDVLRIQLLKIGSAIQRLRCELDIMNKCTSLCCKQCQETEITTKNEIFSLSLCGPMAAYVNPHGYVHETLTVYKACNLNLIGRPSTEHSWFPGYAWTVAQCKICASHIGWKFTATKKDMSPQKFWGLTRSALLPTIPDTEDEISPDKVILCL
T2 sequence (Q16531 whole entry partner, the tested form may be a part): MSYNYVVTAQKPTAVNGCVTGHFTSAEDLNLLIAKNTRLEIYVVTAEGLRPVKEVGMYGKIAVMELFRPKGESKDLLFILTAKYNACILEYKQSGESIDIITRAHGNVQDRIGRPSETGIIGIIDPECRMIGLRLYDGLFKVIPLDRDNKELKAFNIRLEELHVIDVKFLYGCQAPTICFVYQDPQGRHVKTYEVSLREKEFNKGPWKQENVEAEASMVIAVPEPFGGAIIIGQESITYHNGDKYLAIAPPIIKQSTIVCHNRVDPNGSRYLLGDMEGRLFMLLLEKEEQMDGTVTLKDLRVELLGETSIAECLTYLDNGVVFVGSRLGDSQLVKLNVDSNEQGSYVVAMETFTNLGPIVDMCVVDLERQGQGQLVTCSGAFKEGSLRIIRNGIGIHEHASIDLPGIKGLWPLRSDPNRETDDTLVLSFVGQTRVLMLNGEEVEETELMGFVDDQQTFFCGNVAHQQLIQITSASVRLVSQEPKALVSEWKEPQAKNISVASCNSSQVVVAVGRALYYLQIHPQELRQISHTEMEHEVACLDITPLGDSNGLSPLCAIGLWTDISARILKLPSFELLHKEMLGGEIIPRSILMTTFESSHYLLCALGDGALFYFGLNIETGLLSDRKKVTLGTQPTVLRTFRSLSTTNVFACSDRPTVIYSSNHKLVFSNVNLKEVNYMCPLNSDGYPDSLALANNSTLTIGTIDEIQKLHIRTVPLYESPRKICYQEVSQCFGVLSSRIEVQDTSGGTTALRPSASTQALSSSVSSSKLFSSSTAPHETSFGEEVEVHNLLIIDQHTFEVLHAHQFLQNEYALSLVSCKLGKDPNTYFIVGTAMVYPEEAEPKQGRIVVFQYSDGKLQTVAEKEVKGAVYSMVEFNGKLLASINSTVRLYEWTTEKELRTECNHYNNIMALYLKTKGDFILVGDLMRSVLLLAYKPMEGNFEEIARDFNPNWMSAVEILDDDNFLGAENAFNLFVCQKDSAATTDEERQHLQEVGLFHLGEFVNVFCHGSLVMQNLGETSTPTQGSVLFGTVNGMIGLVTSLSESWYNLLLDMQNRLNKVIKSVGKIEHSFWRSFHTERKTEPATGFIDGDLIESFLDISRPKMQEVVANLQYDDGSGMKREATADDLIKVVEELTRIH
T1 sequence (Q9UKS7 whole entry, the tested form may be a part): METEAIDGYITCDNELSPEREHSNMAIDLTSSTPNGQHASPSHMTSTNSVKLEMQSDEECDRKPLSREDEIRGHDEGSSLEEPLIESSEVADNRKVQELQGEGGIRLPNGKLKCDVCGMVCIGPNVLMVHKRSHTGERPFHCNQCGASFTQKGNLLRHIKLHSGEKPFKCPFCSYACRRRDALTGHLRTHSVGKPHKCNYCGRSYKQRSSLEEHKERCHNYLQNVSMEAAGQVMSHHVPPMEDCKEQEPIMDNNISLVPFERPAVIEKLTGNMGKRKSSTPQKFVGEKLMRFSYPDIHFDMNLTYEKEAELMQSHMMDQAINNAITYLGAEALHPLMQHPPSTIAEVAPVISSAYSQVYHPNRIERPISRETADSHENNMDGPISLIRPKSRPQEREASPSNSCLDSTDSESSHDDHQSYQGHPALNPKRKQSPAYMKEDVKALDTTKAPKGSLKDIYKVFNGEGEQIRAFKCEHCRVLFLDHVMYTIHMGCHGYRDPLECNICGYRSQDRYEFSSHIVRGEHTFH
T1 sequence (Q96SW2 whole entry, the tested form may be a part): as the sequence (Q96SW2 whole entry, the tested form may be a part) above
T1 sequence (Q16531 whole entry partner, the tested form may be a part): as the sequence (Q16531 whole entry partner, the tested form may be a part) above

As to `O=C1CCC(N2C(=O)c3ccc(OC4CCCC[C@@H]4N4CC(Oc5cccc(F)c5)C4)c4cccc2c34)C(=O)N1` (stereo in doubt) [Compound 117, 3-[5-[(1R)-2-[3-(3-fluorophenoxy)azetidin-1-yl]cyclohexoxy]-2-oxo-benzo[cd]indol-1-yl]piperidine-2,6-dione], the DC50 on IKZF2 (setting [1]) was over 10 µM. Moreover, on IKZF2 (setting [2]), the Emax was 60 to 95%.

In the case of `O=C1CCC(N2C(=O)c3ccc(C4(F)CCN(Cc5ccccc5)CC4)c4cccc2c34)C(=O)N1` (stereo not drawn) [Compound 96, 3-[5-(1-benzyl-4-fluoro-4-piperidyl)-2-oxo-benzo[cd]indol-1-yl]piperidine-2,6-dione], the DC50 at GSPT1 and on IKZF2 (setting [1]) was over 10 µM throughout. For the same molecule, the Emax at GSPT1 and on IKZF2 (setting [2]) was 60 to 95% each time.

Consider `CN1CCC(F)(c2ccc3c4c(cccc24)N(C2CCC(=O)NC2=O)C3=O)CC1` (stereo not drawn) [Compound 97], for which the DC50 at GSPT1 and at IKZF2 (setting [1]) was over 10 µM each time. In addition, the Emax at GSPT1 and at IKZF2 (setting [2]) was 60 to 95% in each case.

On to `CN1CCC(c2ccc3c4c(cccc24)N(C2CCC(=O)NC2=O)C3=O)C1` (stereo not drawn) [Compound 98, 3-[5-(1-methylpyrrolidin-3-yl)-2-oxo-benzo[cd]indol-1-yl]piperidine-2,6-dione], for which the DC50 at GSPT1 and on IKZF2 (setting [1]) was over 10 µM each time. In addition, the Emax on GSPT1 is over 95%; at IKZF2 (setting [2]), 60 to 95%.

As for `O=C1CCC(N2C(=O)c3ccc(C4CCN(Cc5ccccc5)C4)c4cccc2c34)C(=O)N1` (stereo not drawn) [Compound 99], the DC50 at GSPT1 and on IKZF2 (setting [1]) was over 10 µM each time. The Emax at GSPT1 is over 95%; on IKZF2 (setting [2]), 60 to 95%.

Turning to `O=C1CCC(N2C(=O)c3ccc(C4(F)CN(Cc5ccccc5)C4)c4cccc2c34)C(=O)N1` (stereo not drawn) [Compound 100, 3-[5-(1-benzyl-3-fluoro-azetidin-3-yl)-2-oxo-benzo[cd]indol-1-yl]piperidine-2,6-dione], the DC50 at GSPT1 and on IKZF2 (setting [1]) was over 10 µM each time. The Emax at GSPT1 is over 95%; at IKZF2 (setting [2]), 60 to 95%.

On to `CN1CC(F)(c2ccc3c4c(cccc24)N(C2CCC(=O)NC2=O)C3=O)C1` (stereo not drawn) [Compound 101], for which the DC50 on GSPT1 and on IKZF2 (setting [1]) was over 10 µM in each case. The Emax at GSPT1 was over 95%; at IKZF2 (setting [2]), 60 to 95%.

`CN1CC(c2ccc3c4c(cccc24)N(C2CCC(=O)NC2=O)C3=O)C1` (stereo not drawn) [Compound 102, 3-[5-(1-methylazetidin-3-yl)-2-oxo-benzo[cd]indol-1-yl]piperidine-2,6-dione]: the DC50 on GSPT1, on IKZF2 (setting [1]) and at IKZF2 (setting [3]) was over 10 µM each time. The Emax at GSPT1, on IKZF2 (setting [2]) and on IKZF2 (setting [4]) was 60 to 95% each time.

As for `O=C1CCC(N2C(=O)c3ccc(CC4CN(Cc5ccccc5)C4)c4cccc2c34)C(=O)N1` (stereo not drawn) [Compound 103, 3-[5-[(1-benzylazetidin-3-yl)methyl]-2-oxo-benzo[cd]indol-1-yl]piperidine-2,6-dione], the DC50 on GSPT1 and on IKZF2 (setting [1]) was over 10 µM in each case. The Emax at GSPT1 and at IKZF2 (setting [2]) was 60 to 95% throughout.

As for `CC(C)(C)OC(=O)N1CC(Cc2ccc3c4c(cccc24)N(C2CCC(=O)NC2=O)C3=O)C1` (stereo not drawn) [Compound 104, Tert-butyl 3-[[1-(2,6-dioxo-3-piperidyl)-2-oxo-benzo[cd]indol-5-yl]methyl]azetidine-1-carboxylate], the DC50 at GSPT1 and at IKZF2 (setting [1]) was over 10 µM each time. The Emax on GSPT1 and on IKZF2 (setting [2]) was 60 to 95% in each case.

As for `CN1CC(Cc2ccc3c4c(cccc24)N(C2CCC(=O)NC2=O)C3=O)C1` (stereo not drawn) [Compound 105, 3-[5-[(1-methylazetidin-3-yl)methyl]-2-oxo-benzo[cd]indol-1-yl]piperidine-2,6-dione], the DC50 on GSPT1 and on IKZF2 (setting [1]) was over 10 µM each time. The results for the Emax on GSPT1 and at IKZF2 (setting [2]) were over 95% and 60 to 95%, respectively.

Regarding `Cc1cc(C)nc(-c2ccc3c4c(cccc24)N(C2CCC(=O)NC2=O)C3=O)n1` (stereo not drawn) [Compound 106, 3-[5-(4,6-dimethylpyrimidin-2-yl)-2-oxo-benzo[cd]indol-1-yl]piperidine-2,6-dione], the DC50 at GSPT1 is over 10 µM; on IKZF2 (setting [1]), under 0.5 µM; at IKZF2 (setting [3]), under 0.5 µM. The Emax on GSPT1 was 60 to 95%; on IKZF2 (setting [2]), 45 to 60%; at IKZF2 (setting [4]) it was under 45%.

Consider `CC(NC(=O)c1ccc2c3c(cccc13)N(C1CCC(=O)NC1=O)C2=O)c1ccccc1` (stereo not drawn) [Compound 107, 1-(2,6-dioxo-3-piperidyl)-2-oxo-N-(1-phenylethyl)benzo[cd]indole-5-carboxamide], for which the DC50 at GSPT1 and on IKZF2 (setting [1]) was over 10 µM in each case. The Emax on GSPT1 and at IKZF2 (setting [2]) was 60 to 95% in each case.

For `COc1ccccc1C(C)NC(=O)c1ccc2c3c(cccc13)N(C1CCC(=O)NC1=O)C2=O` (stereo not drawn) [Compound 109, 1-(2,6-dioxopiperidin-3-yl)-N-(1-(2-methoxyphenyl)ethyl)-2-oxo-1,2-dihydrobenzo[cd]indole-5-carboxamide], on GSPT1, the DC50 is over 10 µM and the Emax lay within 60 to 95%.

`O=C1CCC(N2C(=O)c3ccc(C(=O)NC(c4ccccc4)C(F)(F)F)c4cccc2c34)C(=O)N1` (stereo not drawn) [Compound 110, 1-(2,6-dioxopiperidin-3-yl)-2-oxo-N-(2,2,2-trifluoro-1-phenylethyl)-1,2-dihydrobenzo[cd]indole-5-carboxamide]: at IKZF2 (setting [1]), the DC50 was over 10 µM. Moreover, the Emax on IKZF2 (setting [2]) fell in the range of 60 to 95%.

With `CC(C)NC(=O)c1ccc2c3c(cccc13)N(C1CCC(=O)NC1=O)C2=O` (stereo not drawn) [Compound 112, 1-(2,6-dioxopiperidin-3-yl)-N-isopropyl-2-oxo-1,2-dihydrobenzo[cd]indole-5-carboxamide], the DC50 at GSPT1 and at IKZF2 (setting [1]) was over 10 µM in each case. Also, the Emax on GSPT1 and on IKZF2 (setting [2]) was 60 to 95% each time.

On GSPT1, `CN1CCN(c2ccc3c4c(cccc24)N(C2CCC(=O)NC2=O)C3=O)CC1` (stereo not drawn) [Compound 114, 3-[5-(4-methylpiperazin-1-yl)-2-oxo-benzo[cd]indol-1-yl]piperidine-2,6-dione] showed a DC50 of over 10 µM and an Emax of 60 to 95%.

With `O=C1CCC(N2C(=O)c3ccc(N4CCN(Cc5ccccc5)CC4)c4cccc2c34)C(=O)N1` (stereo not drawn) [Compound 115], on IKZF2 (setting [1]), the DC50 was over 10 µM. In addition, on IKZF2 (setting [2]), the Emax lay in the range of 60 to 95%.

At GSPT1, `CN(c1ccc2c3c(cccc13)N(C1CCC(=O)NC1=O)C2=O)C1CCN(Cc2ccccc2)C1` (stereo not drawn) [Compound 116] returned a DC50 of over 10 µM and an Emax of 60 to 95%.

At GSPT1, `O=C1CCC(N2C(=O)c3ccc(C4(F)CCN(Cc5ccccc5)CC4)c4nccc2c34)C(=O)N1` (stereo not drawn) [Compound 123, 3-[18-(1-benzyl-4-fluoro-4-piperidyl)-24-oxo-27,30-diazatricyclododeca-5(17),6(18),7(19),8(27),20-pentaen-30-yl]piperidine-2,6-dione] returned a DC50 of over 10 µM and an Emax of 60 to 95%.

For `O=C1CCC(N2C(=O)c3ccc(C4CCN(Cc5ccccc5)CC4)c4nccc2c34)C(=O)N1` (stereo not drawn) [Compound 126, 3-[17-(1-benzyl-4-piperidyl)-25-oxo-27,30-diazatricyclododeca-5(17),6(18),7(19),8(27),20-pentaen-30-yl]piperidine-2,6-dione], the DC50 at IKZF2 (setting [1]) is over 10 µM. Besides, at IKZF2 (setting [2]), the Emax lay in the range of 60 to 95%.
